Reference: US9133154B2, “Substituted 3-phenylpropylamine derivatives for the treatment of ophthalmic diseases and disorders” (Acucela Inc., priority 2013, dated 2015)
Where “and” joins values, the source holds several entries; their conditions need not be identical. Identical values can stand only once. Entries after “also recorded” stand apart in the source; their conditions may differ. Like-named read-outs stand apart in the source and are kept apart here.

Legend:
[1] = test system: accumulation of A2E in the eyes; assay: A2E accumulation model; assay type: in vivo, abca4−/−, RPE65 Leu450Leu mice; conditions: for Day 91 A2E Concentration, individual animals: 91 days, left eye, animals 1-8, listed as Test cmpd
Procedure: The purpose of this study was to assess the ability of test compounds to inhibit the accumulation of A2E in the eyes of abca4^−/−, RPE65 Leu450Leu mice (ABCR) following 91 days of continuous dosing.
The test compound (R)-3-amino-1-(3-((tetrahydro-2H-pyran-4-yl)methoxy)phenyl)-propan-1-ol (Example 1) was stored in a freezer set to maintain at approximately −20° C.
On the day prior to dosing and once weekly for 13 weeks the test articles were weighed into new empty glass scintillation vials. The compound was dissolved in ethanol (10% of final volume) and then diluted with deionized water (90% of total final volume) resulting in a concentrations of 0.2 mg/mL. This dosing solution was administered to the high dose groups (1 mg/kg). For the low dose groups (0.1 mg/kg) a […] dosing solution was prepared by diluting with vehicle (10% ethanol 90% water) to the appropriate concentration. The dosing solutions were stored in a refrigerator set to maintain between 2 to 8° C. and used for dose administration once per day for one week. The vehicle used for dosing control groups was 10% ethanol 90% deionized water.
Male and female abca4^−/−, and RPE65 Leu450Leu, mice (Charles River Laboratories) were used for this study. The mice were approximately 8-12 week old at the initiation of dosing with a starting average body weight of 19 grams for females and 27 grams for males.
Group 1 animals (Time zero for A2E accumulation) were euthanized with carbon dioxide followed by cervical dislocation on the first day of dosing. Immediately following the cervical dislocation both eyes of the animal was removed and transferred into separate tubes, flash frozen in liquid nitrogen and stored in the dark at −80° C. until processing and analysis.
The remaining groups (2-4) were dosed once each day for 13 weeks. When dosed each animal was administered a 5 mL/kg dose of the appropriate test compound or vehicle via oral gavage using a 1 mL syringe fitted with a 20 gauge oral gavage needle. Upon the completion of the study, animals were euthanized with carbon dioxide followed by cervical dislocation. Immediately following the cervical dislocation both eyes of the animal was removed and transferred into separate tubes, flash frozen in liquid nitrogen and stored in the dark at −80° C. until processing and analysis for A2E concentration.
(§1) All sample processing procedures were performed in the dark under red light.
Extracted samples were analyzed using an Agilent 1100 HPLC system according to the procedure outlined in Table 21 (See Below)
HPLC analysis of the eyes looks at the peak area units of the A2E present in the eyes following extraction as described above.
Data analysis % inhibition (drug vs. recovery control), % control (drug vs. light control), and One-way ANOVA (followed by Tukey's Multiple Comparison) were performed using peak area units and performed by Prism software. Data are represented as mean and standard deviation.

[2] = test system: regeneration of 11-cis-retinal; assay: Single dose time course in the in vivo isomerase assay at 0.3 mg/kg; set-up: species or system BALB/c mice; conditions: for activity at 0.3 mg/kg: Mus musculus, read-out: Percent Control (Avg. % Inhibition)
Procedure: (§2) All test compounds were stored at room temperature, dessicated.
The compounds were dissolved in di-water at the concentration of 0.068 mg/mL and stored overnight at 4° C.
52 Male BALB/c mice (Charles River Laboratories) were used for this study. The mice were approximately 8 weeks at the initiation of dosing with an average body weight of 23 grams.
The day prior to dose administration 52 BALB/c mice were placed into a dark room and dark adapted for a minimum of 12 hours prior to dose administration. The mice were maintained in the dark for the duration of the study.
(§3) Each animal was removed from its cage and dosed accordingly to the study design in Table 10 (see below). Each animal was administered 0.1 mL of the appropriate test article or vehicle orally using a 1 mL syringe fitted with a 23 gauge oral gavage needle. At 2, 4, 6, 8, 16 or 24 hours following dose administration, animals were removed from the dark and exposed to 5000 Lux white light for 10 minutes to photobleach their eyes. Following the completion of the photobleach the animals were returned to the dark for 2 hours to allow for the regeneration of 11-cis-retinal in the eyes. Two hours after photobleaching each animal was euthanized with carbon dioxide followed by cervical dislocation, in the dark under red light. The light control group was euthanized immediately following photobleaching. Immediately following the cervical dislocation both eyes of each animal were removed and transferred into separate tubes, flash frozen in liquid nitrogen and stored in the dark at −80° C. until processing and analysis.
as §1
Extracted samples were analyzed using an Agilent 1100 HPLC system according to the procedure outlined in Table 12 (see below)
(§4) HPLC analysis of the eyes measures the peak area units of the 110cis-Ral-Oxime_syn. Signal.
(§5) Data analysis % inhibition (drug vs. recovery control). % control (drug vs. light control), and One-way ANOVA (followed by Tukey's Multiple Comparison) were performed using peak area units and performed by Prism software. Data are represented as mean and standard deviation.

[3] = test system: retinal isomerase activity (recovery of 11-cis-retinal); assay: Comparative in vivo murine isomerase assay, dose response; set-up: species or system BALB/c mice; conditions: for Avg. % Inhibition: 11-cis-retinal, drug vs. recovery control, listed as cmpd A
Procedure: as §2
On the day prior to dose administration compound A and compound D were weighed into new empty glass vials. The compounds were dissolved in di-water at the concentration of 0.833 mg/mL compound A and 0.892 mg/mL compound D, serially diluted into various concentrations, and stored overnight at 4° C.
56 Male BALB/c mice (Charles River Laboratories) were used for this study. The mice were approximately 8 weeks at the initiation of dosing with an average body weight of 24 grams.
The day prior to dose administration 56 BALB/c mice were placed into a dark room and dark adapted for a minimum of 12 hours prior to dose administration. The mice were maintained in the dark for the duration of the study.
as §3, with “Table 4” for “Table 10”, “appropriate compound” for “appropriate test article”, “vehicle via oral gavage” for “vehicle orally”, “needle. Two” for “needle. At 2, 4, 6, 8, 16 or 24”
as §1
Extracted samples were analyzed using an Agilent 1100 HPLC system according to the procedure outlined in Table 6 (see below)
as §4, §5

[4] = BALB/c mice, single oral dose, 2 hours

- IC50 (dose response experiment) [3, 4]: 0.17 mg/kg
Structure (SMILES): NCC[C@@H](O)c1cccc(OCC2CCOCC2)c1 [Example 1]
- Day 91 A2E Concentration, individual animals ([1]; 0.1 mg/kg oral once daily): 9.64 Pico Moles/eye and 8.97 Pico Moles/eye and 10.23 Pico Moles/eye and 8.42 Pico Moles/eye and 8.49 Pico Moles/eye and 9.6 Pico Moles/eye and 11.68 Pico Moles/eye and 10.27 Pico Moles/eye
- Day 91 A2E Concentration, individual animals ([1]; 1.0 mg/kg oral once daily): 6.49 Pico Moles/eye and 7.68 Pico Moles/eye and 7.75 Pico Moles/eye and 8.87 Pico Moles/eye and 7.56 Pico Moles/eye and 8.01 Pico Moles/eye and 8.86 Pico Moles/eye and 9.49 Pico Moles/eye
- effect on the accumulation of A2E ([1]; 91 days of oral dosing at 0.1 mg/kg and 1.0 mg/kg): statistically significant inhibitory effects on the accumulation of A2E
- inhibition at 0.1 mg/kg ([1]; Mus musculus, 2184 h, 0.1 mg/kg daily oral administration for 91 days): 46.4%
- inhibition at 1 mg/kg ([1]; Mus musculus, 2184 h, 1 mg/kg daily oral administration for 91 days): 65%
- significance of inhibitory effect on the recovery of 11-cis-retinal vs. recovery control ([2]; BALB/c mice, single oral 0.3 mg/kg, 2, 4, 6, 8, 16 and 24 hours, listed as compound A, 0.3 mg/kg): statistically significant difference, P<0.001, from the recovery control group for the 2, 4 and 6 hour time points; also recorded: not a statistically significant difference, P>0.05 for the 8, 16 and 24 time points; also recorded: significant inhibitory effect at 2, 4 and 6 hours; also recorded: no significant effect on the recovery of 11-cis-retinal at the 8, 16 and 24 hour time points; also recorded: statistically significant from the control group at the 2, 4, and 6 hour time points
- activity at 0.3 mg/kg ([2]; BALB/c mice, single oral 0.3 mg/kg, time point 2 hours): 2%
- activity at 0.3 mg/kg ([2]; BALB/c mice, single oral 0.3 mg/kg, time point 4 hours): 11.5%
- activity at 0.3 mg/kg ([2]; BALB/c mice, single oral 0.3 mg/kg, time point 6 hours): 43.7%
- activity at 0.3 mg/kg ([2]; BALB/c mice, single oral 0.3 mg/kg, time point 8 hours): 79.8%
- activity at 0.3 mg/kg ([2]; BALB/c mice, single oral 0.3 mg/kg, time point 16 hours): 98.5%
- activity at 0.3 mg/kg ([2]; BALB/c mice, single oral 0.3 mg/kg, time point 24 hours): 95.8%
- times more active than compound D ([2]; time course experiment, 0.3 mg/kg): greater than 10 ×
- Avg. % Inhibition ([3]; BALB/c mice, oral 0.3 mg/kg, 2 hours, 0.3 mg/kg): 92.4%
- Avg. % Inhibition ([3]; BALB/c mice, oral 0.5 mg/kg, 2 hours, 0.5 mg/kg): 99.3%
- significance of inhibitory effect on the recovery of 11-cis-retinal vs. recovery control ([3]; BALB/c mice, single oral dose 0.03-3 mg/kg, 2 hours, listed as compound A): statistically significant difference, P<0.001 for 0.3, 0.5, 1 and 3 mg/kg dose levels; also recorded: significant inhibitory effect at 0.3 mg/kg, 0.5 mg/kg, 1 mg/kg and 3 mg/kg dose levels
- dose at which 11-cis-retinal recovery was inhibited by 50% [3, 4]: 0.17 mg/kg
- times more active than compound D ([3]; by IC50 of the dose response experiment): 3-4 ×
- times more active than compound D ([3]; by dose showing nearly 100% inhibition (0.5 vs 3.0 mg/kg)): approximately 6 ×
- times more active than compound D ([3]; by inhibition at a dose of 0.3 mg/kg): greater than 10 ×
